Results reported in patent publication US6391921B1 (priority 2000, dated 2002).

Experiments:
BTK = target: T1, BTK (Homo sapiens, UniProt Q06187); experiment: BTK tyrosine kinase assay; type: biochemical; conditions: 1 hour exposure
T1 construct: made in house; host or cells: Sf21 insect cells (baculovirus)
Protocol: (§1) Sf21 (IPLB-SF21-AE) cells derived from the ovarian tissue of the fall armyworm Spodotera frugiperda, were obtained from Invitrogen and maintained at 26-28° C. in Grace's insect cell medium supplemented with 10% FBS and 1.0% antibiotic/antimycotic (GIBCO-BRL). Stock cells were maintained in suspension at 0.2-1.6×10^6/ml in 600 ml total culture volume in 1 L Bellco spinner flasks at 60-90 rpm. Cell viability was maintained at 95-100% as determined by trypan blue dye exclusion.
(§2) Sf21 cells were infected with a baculovirus expression vector for BTK or SYK, as previously described (refs 18 and 19). […]
(§3) Following electrophoresis, kinase gels were dried onto Whatman 3M filter paper and subjected to phosphoimaging on a Molecular Imager (Bio-Rad, Hercules, Calif.) as well as autoradiography on film. […] For each drug concentration, a BTK or SYK kinase activity index was determined by comparing the ratios of the kinase activity in phosphorimager units (PIU) and density of the protein bands in densitometric scanning units (DSU) to those of the baseline sample and using the formula: Activity Index=[PIU of kinase band/DSU of BTK/SYK protein band]test sample: [PIU of kinase band/DSU of BTK/SYK protein band]baseline control sample.

RBL-2H3 mast cells = experiment: IgE receptor/FcεRI-mediated mast cell degranulation (β-hexosaminidase release); type: cell-based, rat
Protocol: Monolayers of RBL-2H3 rat mast cells were sensitized with monoclonal anti-DNP IgE antibody (0.24 mg/ml) for 1 hour at 37° C. in a 48-well tissue culture plate. Unbound IgE was removed by washing the cells with phosphate buffered saline. After washing, PIPES-buffered saline containing 1 mM calcium chloride was added to the monolayers of the RBL-2H3 cells. The cells were challenged with 20 ng/ml DNP-BSA for 30 minutes at 37° C. The plate was centrifuged at 200 g for 10 minutes at 4° C. and supernatants were saved. […]
To study the effects of compound D-58, RBL-2H3 cells were incubated with compound D-58 at the indicated concentrations or vehicle for 1 hour prior to antigen challenge. Mast cell degranulation (β-hexosaminidase release, % of total) was assessed by measuring the β-hexosaminidase levels in cell free supernatants and Triton X-100 solubilized pellets using the formula: β-hexosaminidase release, % of total=100×(β-hexosaminidase level in supernatant/β-hexosaminidase level in supernatant+solubilized pellet). […]
In order to examine the effects of compound D-58 on IgE receptor/FcεRI-mediated mast cell activation and mediator release, RBL-2H3 mast cells were exposed to increasing concentrations of this ethanone or vehicle prior to challenge with antigen (DNP-BSA). […] Mast cell β-hexosaminidase release (FIG. 3A) and LTC4 release (FIG. 3B) were measured. […]

SYK = target: T2, SYK (Homo sapiens, UniProt P43405); experiment: SYK tyrosine kinase assay; type: biochemical; conditions: 1 hour exposure
T2 construct: made in house; host or cells: Sf21 insect cells (baculovirus)
Protocol: as §1, §2, §3

RBL-2H3 cells = experiment: Mast cell viability by trypan blue dye exclusion; type: cell-based, rat; conditions: 300 μM, 2 hour treatment at 37° C.
Description: The viability of compound D-58-treated mast cells ranged from 91 to 92%. […] Stimulation of RBL-2H3 mast cells using IgE/antigen as a stimulus induced the release of significant amounts of preformed granule-associated β-hexosaminidase (47.2±7.9% of total cellular content) as well as newly synthesized LTC4 (5.8±1.8 pg/10^6 cells).

T1 sequence (Q06187 whole entry, species assumed): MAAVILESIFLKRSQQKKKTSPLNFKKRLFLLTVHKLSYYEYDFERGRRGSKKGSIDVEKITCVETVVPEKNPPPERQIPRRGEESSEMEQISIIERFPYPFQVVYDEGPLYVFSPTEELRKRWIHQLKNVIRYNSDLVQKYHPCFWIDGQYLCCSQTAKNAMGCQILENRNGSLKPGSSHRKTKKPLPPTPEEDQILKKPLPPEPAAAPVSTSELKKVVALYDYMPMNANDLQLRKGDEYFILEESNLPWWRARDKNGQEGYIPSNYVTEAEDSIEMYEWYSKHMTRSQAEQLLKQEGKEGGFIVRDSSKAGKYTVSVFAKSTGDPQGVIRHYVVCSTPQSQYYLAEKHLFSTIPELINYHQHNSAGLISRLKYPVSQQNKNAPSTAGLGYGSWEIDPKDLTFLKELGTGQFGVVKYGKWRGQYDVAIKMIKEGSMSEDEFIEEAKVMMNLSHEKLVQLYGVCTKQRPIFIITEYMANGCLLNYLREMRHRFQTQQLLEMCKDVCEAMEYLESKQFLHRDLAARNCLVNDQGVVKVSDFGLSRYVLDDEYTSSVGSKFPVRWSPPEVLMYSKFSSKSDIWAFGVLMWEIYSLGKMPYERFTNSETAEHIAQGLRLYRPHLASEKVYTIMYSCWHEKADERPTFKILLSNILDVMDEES

With COc1ccc(CC(=O)c2c(O)cc(O)cc2O)cc1 [Compound D-58] the IC50 (BTK; first experiment, FIG. 1A) was 18.6 µM, the IC50 (BTK; second experiment, FIG. 1C) was 35.5 µM and the “IgE/antigen induced mast cell degranulation (β-hexosaminidase)” value (RBL-2H3 mast cells; 1 hour prior to DNP-BSA challenge, FIG. 3A) was “inhibited”. For the same compound, the “mediator release induced by compound alone” value (RBL-2H3 mast cells; incubation without antigen challenge (data not shown)) was “did not induce mediator release”, the IC50 (SYK; first experiment, FIG. 1B) was 36.9 µM and the IC50 (SYK; second experiment, FIG. 1C) was under 10 µM. For the same compound, the “effect on viability of RBL-2H3 cells” value (RBL-2H3 cells) was “did not affect the viability”.
